The values below come from patent publication US20210140962A1, “COMPOUND AND METHOD OF MEASURING INTESTINAL PERMEABILITY AND LEAKY GUT” (priority 2017, published 2021).

One data set concerns intestinal permeability. Conditions: rodent model with gradual deterioration of insulin sensitivity and eventual onset of diabetes; oral gavage; change over time (FIG. 5).
The conditions of data set [1]: aqueous solution about 2.5 mM; comprised of materials verified as being non-toxic by the FDA; cited from earlier work.

The structures appear in SMILES notation.

Experimental for intestinal permeability: 100 μg of non-radioactive Cr-EDTA in aqueous solution was administered to C57BL/6 mice and Wistar rats by oral gavage. A urine sample from the animals was then collected 6-10 hours after administration.
The urine sample taken from the animal was incubated with strongly acidic cation exchange resin wherein the active group is nuclear sulfonic acid, e.g., 33% by volume slurry of DOWEX-50-H+® cation exchange resin equilibrated with distilled water at room temperature.
Naturally occurring background Cr ions in the urine were correspondingly bound to the resin. […] The samples were then centrifuged, with the supernatant containing the fraction of administered Cr-EDTA that crossed the intestinal barrier.
The supernatant was injected directly into a Gas Furnace Atomic Absorption Spectroscope (GFAAS) using a graphite tube. The GFAAS apparatus had been calibrated to yield the concentration of Cr in each sample.

For `O=C(O)CN(CCN(CC(=O)O)CC(=O)O)CC(=O)O.[Cr]` [Cr-EDTA, chromium EDTA complex], the “ratio of Cr to creatinine in urine samples” value in the data set on intestinal permeability was “measurable increase”. In addition, the toxicity result in data set [1] was “non-toxic”.
